Results on one substance are retold here after patent EP0004261A2, “Imidazole derivatives, method for their preparation and pharmaceutical compositions containing them” (F. HOFFMANN-LA ROCHE & CO. Aktiengesellschaft, priority 1978, dated 1979).

This test has as its system Bastardhunde. Briefly: Coronary-dilating / haemodynamic effect in anaesthetised open-chest dogs (electromagnetic flowmeter, aortic catheter, tachograph). The note with it: Dosis i.v. 1 mg/kg in Propylenglykol, n = 3.
[1] abbreviates: maximal effect in percent of baseline.

As for “2-Aethyl-N^5(oder N^4)-nitro-1-(2,3,5-tri-O-nitro-ß-D-ribofuranosyl)imidazol-4,5-dicarboxamid [mit R1 = CH3; R2 = H]”, where the note is “duration of effect”, the “BP [min] (arterieller Blutdruck, Wirkungsdauer)” value was greater than 60 min; the “CABF [min] (Coronarfluss, Wirkungsdauer)” value is listed as greater than 60 min; the “HR [min] (Herzfrequenz, Wirkungsdauer)” value is recorded as greater than 60 min; the “PL [min] (Druckgradient, Wirkungsdauer)” value came out at 60 min. Moreover, under setting [1], the “BP Δ % (arterieller Blutdruck)” value is given as -32%; the “CABF Δ % (Coronarfluss)” value is given as -19%; the “HR Δ % (Herzfrequenz)” value is -6%; the “PL Δ % (Druckgradient, Aortadruck minus peripherem Coronardruck)” value is -24%.
